Data on 25 molecules can be found in patent US7109193B2, “Tricyclic diazepines tocolytic oxytocin receptor antagonists” (Wyeth, priority 2001, dated 2006).

For this assay, the target named is T1, human vasopressin V1a receptor subtype (Homo sapiens, UniProt P37288).
T1 construct: host or cells: CHO cells (pZeoSV vector for the Thibonnier line)
The assay can be described thus: Vasopressin binding in Chinese Hamster Ovary cell membranes expressing human vasopressin V1a subtype receptors. As to conditions: 100 nM, CHO cell membranes, [3H]Manning ligand, values without parentheses. In outline: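 Membranes from CHO cells expressing human V1a receptor were incubated with [3H]Manning ligand (added as 20 μL of 8 nM) in pH 7.4 Tris buffer with MgCl2, BSA and protease inhibitors, 60 min at room temperature. Bound radioactivity was counted after filtration; values are percent inhibition at a stated concentration or IC50.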

Structures are written as SMILES.

T1 sequence (P37288 whole entry): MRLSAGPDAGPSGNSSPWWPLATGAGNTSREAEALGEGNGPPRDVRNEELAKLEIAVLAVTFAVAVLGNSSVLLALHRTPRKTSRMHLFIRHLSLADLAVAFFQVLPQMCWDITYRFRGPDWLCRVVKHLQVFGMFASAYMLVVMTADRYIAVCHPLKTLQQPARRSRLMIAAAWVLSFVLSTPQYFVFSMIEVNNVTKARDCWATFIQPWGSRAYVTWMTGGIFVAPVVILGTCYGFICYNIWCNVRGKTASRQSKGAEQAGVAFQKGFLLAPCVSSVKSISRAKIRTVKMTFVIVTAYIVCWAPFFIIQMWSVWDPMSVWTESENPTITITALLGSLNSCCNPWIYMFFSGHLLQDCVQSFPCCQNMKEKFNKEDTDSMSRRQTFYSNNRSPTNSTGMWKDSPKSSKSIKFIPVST

What is called inhibition is the drop in the measured response relative to a control, in per cent. Take `Cc1ccccc1-c1ccc(C(=O)N2Cc3ccc(C(=O)N4CCN(CCN(C)C)CC4)n3Cc3ccccc32)cc1C` [Example 198, {4-[2-(Dimethylamino)ethyl]-1-piperazinyl}{10-[(2,2′-dimethyl[1,1′-biphenyl]-4-yl)carbonyl]-10,11-dihydro-5H-pyrrolo[2,1-c][1,4]benzodiazepin-3-yl}methanone]: the inhibition at 0.1 µM is 50%.
For `COc1ccccc1-c1ccc(C(=O)N2Cc3ccc(C(=O)N4CCN(C(C)C)CC4)n3Cc3ccccc32)cc1C` [Example 232, (4-Isopropyl-1-piperazinyl){10-[(2′-methoxy-2-methyl[1,1′-biphenyl]-4-yl)carbonyl]-10,11-dihydro-5H-pyrrolo[2,1-c][1,4]benzodiazepin-3-yl}methanone], the inhibition at 0.1 µM is 13%.
Under `O=C(c1ccc2n1Cc1ccccc1N(C(=O)c1ccc(-c3cccc4ccccc34)cc1Cl)C2)N1CCN(CCN2CCOCC2)CC1` [Example 215, {10-[2-Chloro-4-(1-naphthyl)benzoyl]-10,11-dihydro-5H-pyrrolo[2,1-c][1,4]benzodiazepin-3-yl}{4-[2-(4-morpholinyl)ethyl]-1-piperazinyl}methanone] stands 5%.
Under `C=CCN1CCN(C(=O)c2ccc3n2Cc2ccccc2N(C(=O)c2ccc(-c4cccc5ccccc45)cc2Cl)C3)CC1` [Example 229, (4-Allyl-1-piperazinyl){10-[2-chloro-4-(1-naphthyl)benzoyl]-10,11-dihydro-5H-pyrrolo[2,1-c][1,4]benzodiazepin-3-yl}methanone] stands 8%.
Take `COc1cccc(-c2ccc(C(=O)N3Cc4ccc(C(=O)N(C)C5CCN(C)C5)n4Cc4ccccc43)cc2C)c1` (stereo not shown) [Example 186, 10-[(3′-Methoxy-2-methyl[1,1′-biphenyl]-4-yl)carbonyl]-N-methyl-N-(1-methyl-3-pyrrolidinyl)-10,11-dihydro-5H-pyrrolo[2,1-c][1,4]benzodiazepine-3-carboxamide]: the inhibition at 0.1 µM came to 53%.
Under `COc1cccc(-c2cc(OC)c(C(=O)N3Cc4ccc(C(=O)N5CCN(C(C)C)CC5)n4Cc4ccccc43)cc2Cl)c1` [Example 239, {10-[(6-Chloro-3,3′-dimethoxy[1,1′-biphenyl]-4-yl)carbonyl]-10,11-dihydro-5H-pyrrolo[2,1-c][1,4]benzodiazepin-3-yl}(4-isopropyl-1-piperazinyl)methanone] stands 2%; under `COc1ccccc1-c1ccc(C(=O)N2Cc3ccc(C(=O)N(C)C4CCN(C)CC4)n3Cc3ccccc32)cc1` [Example 177, 10-[(2′-Methoxy[1,1′-biphenyl]-4-yl)carbonyl]-N-methyl-N-(1-methyl-4-piperidinyl)-10,11-dihydro-5H-pyrrolo[2,1-c][1,4]benzodiazepine-3-carboxamide], 42%; under `COc1cc(C(=O)N2Cc3ccc(C(=O)NCCN4CCCCC4)n3Cc3ccccc32)ccc1-c1cccc2ccccc12` [Example 157, 10-[3-Methoxy-4-(1-naphthyl)benzoyl]-N-[2-(1-piperidinyl)ethyl]-10,11-dihydro-5H-pyrrolo[2,1-c][1,4]benzodiazepine-3-carboxamide], 5%.
Under `CN1CCCC1CCNC(=O)c1ccc2n1Cc1ccccc1N(C(=O)c1ccc(-c3cccc4ccccc34)cc1Cl)C2` (stereo not shown) [Example 173, 10-[2-Chloro-4-(1-naphthyl)benzoyl]-N-[2-(1-methyl-2-pyrrolidinyl)ethyl]-10,11-dihydro-5H-pyrrolo[2,1-c][1,4]benzodiazepine-3-carboxamide] stands 0%; under `O=C(NCCN1CCCCC1)c1ccc2n1Cc1ccccc1N(C(=O)c1ccc(-c3cccc4ccccc34)cc1Cl)C2` [Example 160, 10-[2-Chloro-4-(1-naphthyl)benzoyl]-N-[2-(1-piperidinyl)ethyl]-10,11-dihydro-5H-pyrrolo[2,1-c][1,4]benzodiazepine-3-carboxamide], 6%; under `COc1ccccc1-c1ccc(C(=O)N2Cc3ccc(C(=O)NCCC4CCCN4C)n3Cc3ccccc32)cc1` (stereo not shown) [Example 165, 10-[(2′-Methoxy[1,1′-biphenyl]-4-yl)carbonyl]-N-[2-(1-methyl-2-pyrrolidinyl)ethyl]-10,11-dihydro-5H-pyrrolo[2,1-c][1,4]benzodiazepine-3-carboxamide], 24%.
Under `COc1cc(C(=O)N2Cc3ccc(C(=O)N4CCN(C(C)C)CC4)n3Cc3ccccc32)ccc1-c1ccccc1C` [Example 237, (4-isopropyl-1-piperazinyl){10-[(2-methoxy-2′-methyl[1,1′-biphenyl]-4-yl)carbonyl]-10,11-dihydro-5H-pyrrolo[2,1-c][1,4]benzodiazepin-3-yl}methanone] stands 39%; under `COc1cc2c(cc1OC)N(C(=O)c1ccc(-c3ccccc3C(F)(F)F)c(C)c1)Cc1cccn1C2` [Example 12, 7,8-Dimethoxy-[10,11-dihydro-5H-pyrrolo[2,1-c][1,4]benzodiazepin-10-yl][2-methyl-2′-(trifluoromethyl)[1,1′-biphenyl]-4-yl]methanone], -10%.
Take `C=CCN1CCN(C(=O)c2ccc3n2Cc2ccccc2N(C(=O)c2ccc(-c4cccc5ccccc45)c(OC)c2)C3)CC1` [Example 231, (4-Allyl-1-piperazinyl){10-[3-methoxy-4-(1-naphthyl)benzoyl]-10,11-dihydro-5H -pyrrolo[2,1-c][1,4]benzodiazepin-3-yl}methanone]: the inhibition at 0.1 µM was determined as 7%.
Regarding `C=CCN1CCN(C(=O)c2ccc3n2Cc2ccccc2N(C(=O)c2cc(Cl)c(-c4cccc(OC)c4)cc2OC)C3)CC1` [Example 226, (4-Allyl-1-piperazinyl){10-[(6-chloro-3,3′-dimethoxy[1,1′-biphenyl]-4-yl)carbonyl]-10,11-dihydro-5H-pyrrolo[2,1-c][1,4]benzodiazepin-3-yl}methanone], the inhibition at 0.1 µM is 3%.
Under `COc1ccccc1-c1ccc(C(=O)N2Cc3ccc(C(=O)N4CCN(C(C)C)CC4)n3Cc3ccccc32)cc1` [Example 234, (4-Isopropyl-1-piperazinyl){10-[(2′-methoxy[1,1′-biphenyl]-4-yl)carbonyl]-10,11-dihydro-5H-pyrrolo[2,1-c][1,4]benzodiazepin-3-yl}methanone] stands 26%.
Under `COc1cccc(-c2ccc(C(=O)N3Cc4ccc(C(=O)N(C)C5CCN(C)CC5)n4Cc4ccccc43)cc2C)c1` [Example 176, 10-[(3′-Methoxy-2-methyl[1,1′-biphenyl]-4-yl)carbonyl]-N-methyl-N-(1-methyl-4-piperidinyl)-10,11-dihydro-5H-pyrrolo[2,1-c][1,4]benzodiazepine-3-carboxamide] stands 27%; under `COc1ccccc1-c1ccc(C(=O)N2Cc3ccc(C(=O)N4CCN(CCN(C)C)CC4)n3Cc3ccccc32)cc1OC` [Example 204, {10-[(2,2′-Dimethoxy[1,1′-biphenyl]-4-yl)carbonyl]-10,11-dihydro-5H-pyrrolo[2,1-c][1,4]benzodiazepin-3-yl}{4-[2-(dimethylamino)ethyl]-1-piperazinyl}methanone], 16%; under `COc1cc(C(=O)N2Cc3ccc(C(=O)N4CCN(CCN(C)C)CC4)n3Cc3ccccc32)ccc1-c1ccccc1C` [Example 201, {4-[2-(Dimethylamino)ethyl]-1-piperazinyl}{10-[(2-methoxy-2′-methyl[1,1′-biphenyl]-4-yl)carbonyl]-10,11-dihydro-5H-pyrrolo[2,1-c][1,4]benzodiazepin-3-yl}methanone], 43%.
Regarding `COc1cc(C(=O)N2Cc3ccc(C(=O)N4CCN(CCN5CCOCC5)CC4)n3Cc3ccccc32)ccc1-c1cccc2ccccc12` [Example 213, {10-[3-Methoxy-4-(1-naphthyl)benzoyl]-10,11-dihydro-5H-pyrrolo[2,1-c][1,4]benzodiazepin-3-yl}{4-[2-(4-morpholinyl)ethyl]-1-piperazinyl}methanone], the inhibition at 0.1 µM turned out to be 12%.
For the molecule `COc1ccccc1-c1ccc(C(=O)N2Cc3ccc(C(=O)N(C)C4CCN(C)C4)n3Cc3ccccc32)cc1` (stereo not shown) [Example 187, 10-[(2′-Methoxy[1,1′-biphenyl]-4-yl)carbonyl]-N-methyl-N-(1-methyl-3-pyrrolidinyl)-10,11-dihydro-5H-pyrrolo[2,1-c][1,4]benzodiazepine-3-carboxamide], the inhibition at 0.1 µM was 81%.
As to `COc1cc(-c2ccccc2C)c(Cl)cc1C(=O)N1Cc2ccc(C(=O)N(C)C3CCN(C)CC3)n2Cc2ccccc21` [Example 180, 10-[(6-Chloro-3-methoxy-2′-methyl[1,1′-biphenyl]-4-yl)carbonyl]-N-methyl-N-(1-methyl-4-piperidinyl)-10,11-dihydro-5H-pyrrolo[2,1-c][1,4]benzodiazepine-3-carboxamide], the inhibition at 0.1 µM is 26%.
Under `COc1cc(C(=O)N2Cc3ccc(C(=O)NCCC4CCCN4C)n3Cc3ccccc32)ccc1-c1ccccc1C` (stereo not shown) [Example 167, 10-[(2-Methoxy-2′-methyl[1,1′-biphenyl]-4-yl)carbonyl]-N-[2-(1-methyl-2-pyrrolidinyl)ethyl]-10,11-dihydro-5H-pyrrolo[2,1-c][1,4]benzodiazepine-3-carboxamide] stands 50%.
For the molecule `COc1ccccc1-c1ccc(C(=O)N2Cc3ccc(C(=O)NCCC4CCCN4C)n3Cc3ccccc32)cc1OC` (stereo not shown) [Example 171, 10-[(2,2′-Dimethoxy[1,1′-biphenyl]-4-yl)carbonyl]-N-[2-(1-methyl-2-pyrrolidinyl)ethyl]-10,11-dihydro-5H-pyrrolo[2,1-c][1,4]benzodiazepine-3-carboxamide], the inhibition at 0.1 µM is 14%.
As for `COc1ccccc1-c1ccc(C(=O)N2Cc3ccc(C(=O)N4CCN(C(C)C)CC4)n3Cc3ccccc32)cc1OC` [Example 241, {10-[(2,2′-Dimethoxy[1,1-biphenyl]4-yl)carbonyl]-10,11-dihydro-5H-pyrrolo[2,1-c][1,4]benzodiazepin-3-yl}(4-isopropyl-1-piperazinyl)methanone], the inhibition at 0.1 µM was -4%.
